Values quoted from earlier work, collected in paper PMC11996792, “First-in-human study of CPL’116 – a dual JAK/ROCK inhibitor – in healthy subjects” (Frontiers in Pharmacology, 2025).
Like-named read-outs stand apart in the source and are kept apart here. Each block holds one molecule with its values, some of them ahead of it.

Compound: O=S(=O)(c1cccc2c(O)nccc12)N1CCCNCC1 [hydroxyfasudil]
mean half-life (ref Wolff et al., 2024): 5.5 to 5.7 h

Compound: CC[C@@H]1CN(C(=O)NCC(F)(F)F)C[C@@H]1c1cnc2cnc3[nH]ccc3n12 [upadacitinib]
mean half-life (ref Mohamed et al., 2016): 5.9 to 14.5 h

Compound: CC(C)NC(=O)COc1cccc(-c2nc(Nc3ccc4[nH]ncc4c3)c3ccccc3n2)c1 [belumosudil]
mean half-life (ref Schueller et al., 2024): 7.5 to 10.9 h

More lines, now with the values ahead:

mean half-life (ref Shi et al., 2014): 8.5 h | mean half-life (ref Zhao et al., 2020): 5.8 to 7.4 h
Compound: CCS(=O)(=O)N1CC(CC#N)(n2cc(-c3ncnc4[nH]ccc34)cn2)C1 [baricitinib]

mean half-life (extended-release formulation, ref Lamba et al., 2016): 5.9 h | mean half-life (immediate formulation, ref Lamba et al., 2016): 3.2 h
Compound: C[C@@H]1CCN(C(=O)CC#N)C[C@@H]1N(C)c1ncnc2[nH]ccc12 [tofacitinib]
